Data: patent publication US7557110B2, “Pyrazolo[1,5-A] pyrimidine derivatives” (Teijin Pharma Limited, priority 2003, dated 2009)
Where two headings read alike, the source gives them in different places.

Columns and labels:
CDK-2 = CDK-2 (Homo sapiens, UniProt P24941); test: CDK-2 enzyme activity inhibition (33P-ATP filter plate kinase assay); format: biochemical
Text: [General Procedure for Measurement of CDK-2 Enzyme Activity Inhibition]

CDK-1 = CDK-1 (Homo sapiens, UniProt P06493); test: CDK-1 enzyme activity inhibition (33P-ATP filter plate kinase assay)
Method: [General Procedure for Measurement of CDK-1 Enzyme Activity Inhibition]
Compounds were dissolved in DMSO at a concentration of 10 mM and stored in aliquots at −20° C. Compounds in DMSO from these stock aliquots were diluted in DMSO to produce the required range of 30× stock solutions. These stock solutions were then subjected to 1:3 dilutions in order to prepare the required range of 10× stock solutions and 5 μL of each solution was used per 50 μL reaction.
The kinase reaction was conducted in a round-bottomed polypropylene 96-well plate. CDK-1 was diluted to 0.5 U/μL in diluent buffer (50 mM Tris/HCl. pH7.5, 0.1 mM EGTA, 0.1% (v/v) β-mercaptoethanol, 1 mg/mL BSA). 5 μL compound or 30% DMSO was added to each well followed by 25 μL substrate cocktail (final concentration: 10 μM ATP, 50 μM peptide ([sequence]), 0.5 μCi ^33P-γ-ATP in 50 mM Tris-HCl (pH 7.5), 1 mM EGTA, 2 mM DTT, 10 mM MgCl2, 0.01% Brij-35). The reaction was initiated with the addition of 20 μL enzyme solution per well or 20 μL of diluent buffer without enzyme. The plate was shaken for 10 seconds and then left at room temperature for 15 minutes. The reaction was terminated with 50 μL 150 mM phosphoric acid. 90 μL of the reaction mixture was then transferred into a 96-well P81 filter plate (Whatmann) and incubated at room temperature for 5 minutes. The filter plate was then washed 4 times with 200 μL 75 mM phosphoric acid per well on a plate vacuum manifold (Millipore) and dried in an oven for 2-3 hours. Packard MicroScint ‘0’ (30 μL) was then added to each well, the plate was miffed for 30 minutes and subjected to liquid scintillation counting on a Packard TopCount.

MAPKAP-K2 = MAPKAP-K2 (Homo sapiens, UniProt P49137); test: MAPKAP-K2 enzyme activity inhibition (33P-ATP filter plate kinase assay); format: biochemical; settings: MAPKAP-K2 inhibitory activity; assays conducted at typically 1-100 μM; further: key: +: active; ++: more active; +++: very active
[1] = read-out: CDK-2 inhibition IC50

Chain of CDK-1 (P06493 whole entry, species assumed): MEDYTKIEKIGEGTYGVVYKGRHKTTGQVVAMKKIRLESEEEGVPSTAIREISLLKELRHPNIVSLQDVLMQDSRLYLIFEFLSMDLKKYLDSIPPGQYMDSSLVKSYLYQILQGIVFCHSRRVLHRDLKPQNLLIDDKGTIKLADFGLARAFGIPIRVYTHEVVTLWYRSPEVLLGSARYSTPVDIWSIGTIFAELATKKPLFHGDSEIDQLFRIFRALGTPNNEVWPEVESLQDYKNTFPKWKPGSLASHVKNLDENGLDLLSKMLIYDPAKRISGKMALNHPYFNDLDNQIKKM
Chain of CDK-1 (P14635 whole entry partner, species assumed): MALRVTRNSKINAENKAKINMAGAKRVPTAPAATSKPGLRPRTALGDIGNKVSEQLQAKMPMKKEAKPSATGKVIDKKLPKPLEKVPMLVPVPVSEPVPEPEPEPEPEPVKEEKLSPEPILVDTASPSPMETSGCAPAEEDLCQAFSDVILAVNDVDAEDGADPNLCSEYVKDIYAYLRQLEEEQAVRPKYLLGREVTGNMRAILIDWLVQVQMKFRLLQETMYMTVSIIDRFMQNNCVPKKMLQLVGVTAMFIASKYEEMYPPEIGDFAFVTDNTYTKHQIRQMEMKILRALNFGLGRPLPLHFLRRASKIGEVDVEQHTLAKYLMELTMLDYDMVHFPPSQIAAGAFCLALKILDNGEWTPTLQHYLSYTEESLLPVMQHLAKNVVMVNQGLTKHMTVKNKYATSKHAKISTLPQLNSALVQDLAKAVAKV
Chain of MAPKAP-K2 (P49137 whole entry): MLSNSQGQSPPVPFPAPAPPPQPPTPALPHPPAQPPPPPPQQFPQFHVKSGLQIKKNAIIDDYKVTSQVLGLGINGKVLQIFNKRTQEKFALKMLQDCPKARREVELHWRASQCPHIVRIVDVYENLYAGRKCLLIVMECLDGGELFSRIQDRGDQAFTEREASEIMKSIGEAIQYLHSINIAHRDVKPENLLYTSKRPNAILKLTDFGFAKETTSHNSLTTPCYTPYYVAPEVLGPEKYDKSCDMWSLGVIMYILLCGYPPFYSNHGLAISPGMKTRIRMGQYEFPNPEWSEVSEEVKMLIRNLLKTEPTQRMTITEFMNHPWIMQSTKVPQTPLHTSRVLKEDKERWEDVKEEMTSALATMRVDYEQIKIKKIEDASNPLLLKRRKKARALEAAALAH

Row | melting point | IC50 (CDK-2; [1]) | IC50 (CDK-1) | activity (efficacy against MAPKAP-K2) (MAPKAP-K2) | IC50 (CDK-2) | SMILES
1 | 224 to 226 °C (dec.) | < 100 µM | – | – | – | Cc1nn2c(Nc3ccc(F)c(Cl)c3)cc(N[C@H]3CC[C@H](N)CC3)nc2c1Br [Compound 6]
2 | – | – | < 100 µM | +++ | – | N[C@H]1CC[C@H](Nc2nc3ccnn3c(Nc3ccc(F)c(Cl)c3)c2Cc2ccccc2)CC1 [Compound 24]
3 | – | – | < 100 µM | +++ | – | CCc1c(N[C@H]2CC[C@H](N)CC2)nc2ccnn2c1Nc1ccc(Cl)cc1 [Compound 26]
4 | – | – | < 100 µM | +++ | – | CCc1c(N[C@H]2CC[C@H](N)CC2)nc2ccnn2c1Nc1ccc(C)c(C)c1 [Compound 30]
5 | 63 to 65 °C | < 100 µM | – | ++ | – | CCc1c(N[C@H]2CC[C@H](N)CC2)nc2ccnn2c1NCc1ccccc1Cl [Compound 38]
6 | 91 to 93 °C | < 100 µM | – | ++ | – | C=C(C)CNc1c(CC)c(N[C@H]2CC[C@H](N)CC2)nc2ccnn12 [Compound 46]
7 | 153 to 155 °C | < 100 µM | – | ++ | – | N[C@H]1CC[C@H](Nc2cc(Nc3ccc(F)c(Cl)c3)n3ncc(I)c3n2)CC1 [Compound 49]
8 | 116 to 118 °C | < 100 µM | – | +++ | – | CCCCOc1ccc(Nc2c(CCCO)c(N[C@H]3CC[C@H](N)CC3)nc3ccnn23)cc1 [Compound 53]
9 | 189 to 192 °C | < 100 µM | – | +++ | – | CCc1c(N[C@H]2CC[C@H](N)CC2)nc2ccnn2c1Nc1ccc(OC)c(Cl)c1 [Compound 55]
10 | 144 to 148 °C | < 100 µM | – | +++ | – | CCCCOc1ccc(Nc2c(CC)c(N[C@H]3CC[C@H](N)CC3)nc3ccnn23)cc1 [Compound 56]
11 | 102 to 104 °C | < 100 µM | – | +++ | – | CCc1c(N[C@H]2CC[C@H](N)CC2)nc2ccnn2c1Nc1ccc(Oc2ccc(C)cc2)cc1 [Compound 57]
12 | 181 to 185 °C | < 100 µM | – | ++ | – | CCc1c(N[C@H]2CC[C@H](N)CC2)nc2ccnn2c1Nc1ccc(OC)c(OC)c1 [Compound 58]
13 | 199 to 201 °C | < 100 µM | – | +++ | – | CCc1c(N[C@H]2CC[C@H](N)CC2)nc2ccnn2c1Nc1cccc(I)c1 [Compound 60]
14 | 150 to 152 °C | < 100 µM | – | +++ | – | CCOc1cccc(Nc2c(CC)c(N[C@H]3CC[C@H](N)CC3)nc3ccnn23)c1 [Compound 61]
15 | 185 to 187 °C | < 100 µM | – | +++ | – | CSc1ccc(Nc2c(C)c(N[C@H]3CC[C@H](N)CC3)nc3ccnn23)cc1 [Compound 65]
16 | 215 to 216 °C | < 100 µM | – | +++ | – | Cc1c(N[C@H]2CC[C@H](N)CC2)nc2ccnn2c1Nc1cccc(Br)c1 [Compound 77]
17 | 209 to 212 °C | < 100 µM | – | +++ | – | Cc1c(N[C@H]2CC[C@H](N)CC2)nc2ccnn2c1Nc1cccc(Cl)c1 [Compound 85]
18 | 145 to 150 °C | < 100 µM | – | +++ | – | Cc1c(N[C@H]2CC[C@H](N)CC2)nc2ccnn2c1Nc1cccc(O)c1 [Compound 88]
19 | 101 to 104 °C | < 100 µM | – | – | – | CCOc1ccc(Nc2c(C)c(N[C@H]3CC[C@H](N)CC3)nc3c(CO)cnn23)cc1 [Compound 92]
20 | 97 to 100 °C | < 100 µM | – | +++ | – | Cc1c(N[C@H]2CC[C@H](N)CC2)nc2ccnn2c1Nc1cccc(CO)c1 [Compound 97]
21 | 96 to 99 °C | < 100 µM | – | +++ | – | Cc1c(N[C@H]2CC[C@H](N)CC2)nc2ccnn2c1Nc1ccccc1 [Compound 102]
22 | 100 to 108 °C | < 100 µM | – | +++ | – | Cc1c(N[C@H]2CC[C@H](N)CC2)nc2ccnn2c1Nc1ccc2ncsc2c1 [Compound 112]
23 | 181 to 183 °C | < 100 µM | – | ++ | – | CCc1c(N[C@H]2CC[C@H](N)CC2)nc2ccnn2c1Nc1ccc(OC)c(C(F)(F)F)c1 [Compound 113]
24 | 165 to 168 °C | < 100 µM | – | +++ | – | CC(C)c1c(N[C@H]2CC[C@H](N)CC2)nc2ccnn2c1Nc1ccc(F)c(Cl)c1 [Compound 115]
25 | 210 to 215 °C | < 100 µM | – | +++ | – | Cc1c(N[C@H]2CC[C@H](N)CC2)nc2ccnn2c1Nc1ccc(-n2ccnc2)cc1 [Compound 118]

Row | melting point | IC50 (CDK-2; [1]) | IC50 (CDK-1) | activity (efficacy against MAPKAP-K2) (MAPKAP-K2) | IC50 (CDK-2) | SMILES
26 | 68 to 72 °C | < 100 µM | – | +++ | – | Cc1c(N[C@H]2CC[C@H](N)CC2)nc2ccnn2c1Nc1ccc2c(c1)OCCO2 [Compound 126]
27 | 58 to 66 °C | < 100 µM | – | +++ | – | Cc1c(N[C@H]2CC[C@H](N)CC2)nc2ccnn2c1Nc1ccc(N2CCCCC2)cc1 [Compound 129]
28 | 206 to 210 °C | < 100 µM | – | ++ | – | CCc1c(N[C@H]2CC[C@H](N)CC2)nc2ccnn2c1Nc1cccc(C(N)=O)c1 [Compound 151]
29 | 210 to 215 °C | < 100 µM | – | +++ | – | Cc1nc2ccc(Nc3c(C)c(N[C@H]4CC[C@H](N)CC4)nc4ccnn34)cc2s1 [Compound 155]
30 | 184 to 187 °C | < 100 µM | – | +++ | – | CCc1c(N[C@H]2CC[C@H](N)CC2)nc2ccnn2c1Nc1ccc(Br)cc1 [Compound 159]
31 | 104 to 106 °C | < 100 µM | – | ++ | – | CCc1c(N[C@H]2CC[C@H](N)CC2)nc2ccnn2c1Nc1ccc(I)cc1 [Compound 168]
32 | – | < 100 µM | – | ++ | – | CCCCC(=O)c1cnn2c(Nc3ccc(OCC)cc3)c(C)c(N[C@H]3CC[C@H](N)CC3)nc12 [Compound 362]
33 | – | < 100 µM | – | ++ | – | CCOc1ccc(Nc2c(C)c(N[C@@H]3CCNC3)nc3ccnn23)cc1 [Compound 412]
34 | – | < 100 µM | – | + | – | Cc1c(N[C@H]2CC[C@H](N)CC2)nc2c(C(=O)C(F)(F)F)cnn2c1Nc1ccc(I)cc1 [Compound 417, 1-{5-[(trans-4-aminocyclohexyl)amino]-7-[(4-iodophenyl)amino]-6-methyl(pyrazolo[1,5-a]pyrimidin-3-yl)}-2,2,2-trifluoroethan-1-one]
35 | – | < 100 µM | – | ++ | – | CCOc1ccc(Nc2c(C)c(N[C@@H]3CCN(Cc4ccccc4)C3)nc3ccnn23)cc1 [Compound 418]
36 | – | < 100 µM | – | +++ | – | Cc1cscc1-c1ccc(Nc2c(C)c(N[C@H]3CC[C@H](N)CC3)nc3ccnn23)cc1 [Compound 421]
37 | – | < 100 µM | – | +++ | – | Cc1c(N[C@H]2CC[C@H](N)CC2)nc2ccnn2c1Nc1ccc(-c2cn[nH]c2)cc1 [Compound 422]
38 | – | < 100 µM | – | +++ | – | Cc1c(N[C@H]2CC[C@H](N)CC2)nc2ccnn2c1Nc1ccc(-c2cc3ccccc3[nH]2)cc1 [Compound 423]
39 | – | < 100 µM | – | + | – | CCOc1ccc(Nc2c(C)c(N[C@H]3CC[C@H](N)CC3)nc3c(NC)cnn23)cc1 [Compound 437]
40 | – | < 100 µM | – | +++ | – | Cc1c(N[C@H]2CC[C@H](N)CC2)nc2c(F)cnn2c1Nc1ccc(I)cc1 [Compound 441, {5-[(trans-4-aminocyclohexyl)amino]-3-fluoro-6-methyl(pyrazolo[1,5-a]pyrimidin-7-yl)}(4-iodophenyl)amine]
41 | – | < 100 µM | – | +++ | – | Cc1c(NC2CCCNC2)nc2ccnn2c1Nc1ccc(-c2cccc(N)c2)cc1 (stereo not drawn) [Compound 444]
42 | – | < 100 µM | – | +++ | – | Cc1c(NC2CCCNC2)nc2ccnn2c1Nc1ccc(-c2cccc(CO)c2)cc1 (stereo not drawn) [Compound 445]
43 | – | < 100 µM | – | +++ | – | CNC(=O)c1ccc(Nc2c(C)c(N[C@H]3CC[C@H](N)CC3)nc3ccnn23)cc1 [Compound 460]
44 | – | < 100 µM | – | +++ | – | Cc1c(N[C@H]2CC[C@H](N)CC2)nc2ccnn2c1Nc1ccc(C(=O)NC2CCCC2)cc1 [Compound 463]
45 | – | < 100 µM | – | +++ | – | Cc1c(N[C@H]2CC[C@H](N)CC2)nc2ccnn2c1Nc1ccc(C(=O)NCc2ccco2)cc1 [Compound 511]
46 | – | < 100 µM | – | ++ | – | CCOc1ccc(Nc2c(C)c(N[C@@H]3CN[C@@H](C(=O)O)C3)nc3ccnn23)cc1 [Compound 772]
47 | – | – | – | +++ | < 100 µM | CC(=O)c1ccc(-c2ccc(Nc3c(C)c(N[C@H]4CCCNC4)nc4ccnn34)cc2)s1 [Compound 773]
48 | – | < 100 µM | – | +++ | – | Cc1c(N[C@H]2CC[C@H](N)CC2)nc2ccnn2c1Nc1ccc(C(=O)Nc2ccccc2)cc1 [Compound 776]
49 | – | < 100 µM | – | +++ | – | Cc1c(N[C@H]2CC[C@H](N)CC2)nc2ccnn2c1Nc1ccc(C(=O)c2ccccc2)cc1 [Compound 778]
50 | – | < 100 µM | – | +++ | – | Cc1c(N[C@H]2CC[C@H](N)CC2)nc2ccnn2c1Nc1ccc(OC(F)(F)F)c(Cl)c1 [Compound 785]
